# In article PMC2765816 (European journal of pharmacology, 2008):
# Experiments:
# [1] = molecular target: adenosine A2A-CFP receptor (Homo sapiens, UniProt P29274); settings: 0.45 M; agonist 2 μM NECA
# adenosine A2B receptor = molecular target: T1, adenosine A2B receptor (Homo sapiens, UniProt P29275); settings: ref Hide et al., 1992; cited from earlier work
# T1 sequence (P29275 1-332): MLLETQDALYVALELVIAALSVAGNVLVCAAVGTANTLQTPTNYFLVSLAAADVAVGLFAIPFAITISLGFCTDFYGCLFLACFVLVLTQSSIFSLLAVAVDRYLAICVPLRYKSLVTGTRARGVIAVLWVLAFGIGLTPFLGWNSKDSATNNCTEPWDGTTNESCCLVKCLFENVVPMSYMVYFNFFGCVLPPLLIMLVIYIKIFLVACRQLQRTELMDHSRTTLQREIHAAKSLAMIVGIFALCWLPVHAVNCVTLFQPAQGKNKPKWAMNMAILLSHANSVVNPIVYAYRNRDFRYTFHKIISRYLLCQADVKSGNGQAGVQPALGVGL
# adenosine A2A-CFP receptor, sequence (P29274 1-363): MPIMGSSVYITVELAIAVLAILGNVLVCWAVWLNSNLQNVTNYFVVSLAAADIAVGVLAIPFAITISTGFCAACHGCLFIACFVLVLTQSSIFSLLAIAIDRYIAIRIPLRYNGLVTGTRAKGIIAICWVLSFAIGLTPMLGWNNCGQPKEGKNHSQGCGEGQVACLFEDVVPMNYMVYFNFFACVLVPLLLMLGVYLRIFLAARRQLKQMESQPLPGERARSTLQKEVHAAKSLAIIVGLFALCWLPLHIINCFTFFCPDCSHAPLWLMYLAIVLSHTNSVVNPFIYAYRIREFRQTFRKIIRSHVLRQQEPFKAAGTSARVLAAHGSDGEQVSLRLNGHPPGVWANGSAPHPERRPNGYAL
Structure (SMILES),effect on agonist-induced internalization of A2A-CFP [1],activity at the adenosine A2B receptor (adenosine A2B receptor)
"OC[C@H]1O[C@@](CO)(O[C@H]2O[C@H](CO)[C@@H](O)[C@H](O)[C@H]2O)[C@@H](O)[C@@H]1O [hyperosmolar sucrose, sucrose]",prevented agonist-induced internalization,
"CCNC(=O)[C@H]1O[C@@H](n2cnc3c(N)nc(NCCc4ccc(CCC(=O)NCCN)cc4)nc32)[C@H](O)[C@@H]1O [APEC, 2-[4-(2-aminoethylaminocarbonylethyl)phenylethylamino]-5′-N-ethylcarboxamidoadenosine]",,inactive
